# Target: human SGLT1 (Homo sapiens (Human), UniProt P13866)
# Assay: SGLT1 inhibitory activity: 14C-AMG uptake into CHO-K1 cell line stably expressing human SGLT1
# Format: cell-based
# Conditions: 14C-AMG uptake, CHO-K1 cells expressing human SGLT1
# Procedure, shortened: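 CHO-K1 cells stably expressing human SGLT1 were pre-incubated 20 min in Na(−) buffer (pH 7.4). Test compound in Na(+) buffer with BSA was added with ¹⁴C-AMG (8 kBq) plus unlabelled AMG (2 mM in the added solution) for 1 h at 37 °C.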
# Sequence of human SGLT1 (P13866 whole entry): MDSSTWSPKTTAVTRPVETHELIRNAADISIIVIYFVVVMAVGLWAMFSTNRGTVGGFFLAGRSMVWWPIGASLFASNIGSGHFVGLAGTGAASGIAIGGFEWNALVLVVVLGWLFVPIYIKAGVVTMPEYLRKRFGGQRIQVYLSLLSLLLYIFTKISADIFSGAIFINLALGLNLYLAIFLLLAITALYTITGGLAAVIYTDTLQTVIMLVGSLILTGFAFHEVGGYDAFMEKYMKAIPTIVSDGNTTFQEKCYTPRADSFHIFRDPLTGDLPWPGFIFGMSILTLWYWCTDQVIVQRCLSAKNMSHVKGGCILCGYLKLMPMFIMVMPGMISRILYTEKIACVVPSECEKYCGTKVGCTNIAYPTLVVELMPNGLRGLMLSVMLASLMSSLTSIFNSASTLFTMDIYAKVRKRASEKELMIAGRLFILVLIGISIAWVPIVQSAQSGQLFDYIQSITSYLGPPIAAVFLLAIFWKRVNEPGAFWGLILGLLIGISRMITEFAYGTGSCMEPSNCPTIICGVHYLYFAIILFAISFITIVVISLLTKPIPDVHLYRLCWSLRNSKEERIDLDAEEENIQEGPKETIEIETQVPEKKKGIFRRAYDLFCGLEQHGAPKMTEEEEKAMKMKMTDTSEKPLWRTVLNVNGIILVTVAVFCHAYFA
row,SMILES,IC50 [nM]
1,CC(C)C(F)(F)c1cccc(-c2cc(NC(=O)[C@H]3CNC(=O)C3)nn2-c2ccccc2)c1 [Example 138],1.5
2,"CC1(C)CCCC(c2cc(NC(=O)[C@H]3CNC(=O)C3)nn2-c2ccccc2)C1 (single isomer, unassigned) [Example 88]",17
3,CC(C)(C)c1cccc(-c2cc(NC(=O)[C@H]3CNC(=O)C3)nn2-c2cccc(Cl)c2)c1 [Example 126],1.2
4,CCCc1cccc(-c2cc(NC(=O)[C@H]3CNC(=O)C3)nn2CCC(C)(C)C)c1 [Example 134],6.8
5,O=C1C[C@@H](C(=O)Nc2cc(C3CCCC3)n(-c3ccccc3)n2)CN1 [Example 63],2400
6,Cc1cc(F)ccc1-n1nc(NC(=O)[C@H]2CNC(=O)[C@@H]2C)cc1-c1cccc(OC(F)(F)F)c1 [Example 196],4.8
7,Cc1ccc(-n2nc(NC(=O)[C@H]3CNC(=O)[C@@H]3C)cc2-c2cccc(OC(F)(F)F)c2)cc1 [Example 234],7.4
8,O=C1C[C@@H](C(=O)Nc2cc(-c3cccc(OCC(F)(F)F)c3)n(-c3ccccc3)n2)CN1 [Example 148],10
9,Cc1ccccc1-n1nc(NC(=O)[C@H]2CNC(=O)[C@@H]2C)cc1-c1cccc(C(F)(F)F)c1 [Example 225],3.9
10,CCCc1cccc(-c2cc(NC(=O)[C@@H]3CNC(=O)C3)nn2-c2ccc(C)cc2)c1 [Example 49],12
11,CCCCCCn1nc(NC(=O)C2CNC(=O)C2)cc1-c1ccccc1 (racemic) [Example 13],250
12,CCC(F)(F)c1cccc(-c2cc(NC(=O)[C@H]3CNC(=O)C3)nn2-c2cccc(Cl)c2)c1 [Example 139],1.7
13,CCC(F)(F)c1cccc(-c2cc(NC(=O)[C@H]3CNC(=O)C3)nn2C2CCOCC2)c1 [Example 155],19
14,CCOc1cccc(-c2cc(NC(=O)[C@@H]3CNC(=O)C3)nn2-c2ccccc2)c1 [Example 31],270

# Same assay, conditions: 14C-AMG uptake, CHO-K1 cells stably expressing human SGLT1
row,SMILES,IC50 [nM]
1,CCCc1cccc(-c2cc(NC(=O)[C@@H]3CNC(=O)N3CC(F)(F)F)nn2-c2ccccc2)c1 [Example 384],48
2,CCCc1cccc(-c2cc(NC(=O)C3CC[S+]([O-])CC3)nn2-c2ccccc2)c1 (stereo not shown) [Example 318],3.2
3,CC(C)Oc1cc(F)cc(-n2nc(NC(=O)[C@@H]3CNC(=O)C3)cc2-c2cccc(COCC(F)(F)F)c2)c1 [Example 529],2.3
4,"CCCc1cccc(-c2cc(NC(=O)C3CNC(=O)C34CC4)nn2-c2ccccc2)c1 (single isomer, unassigned) [Example 360]",1.5
5,CC(C)(OCc1cc(Cl)cc(-c2cc(NC(=O)[C@H]3CNC(=O)N3)nn2-c2ccccc2)c1)C(F)(F)F [Example 594],66
6,CC(C)Oc1cccc(-c2cc(NC(=O)[C@@H]3CNC(=O)C3)nn2-c2ccccc2)c1 [Example 301],63
7,COc1ccc(F)c(-n2nc(NC(=O)[C@@H]3CNC(=O)C3)cc2-c2cccc(OC(F)(F)F)c2)c1 [Example 515],12
8,O=C1C[C@@H](C(=O)Nc2cc(-c3cccc(COCCC(F)(F)F)c3)n(-c3ccccc3)n2)CN1 [Example 282],9.9
9,O=C1C[C@H](C(=O)Nc2cc(-c3cccc(OCCCC(F)(F)F)c3)n(-c3ccccc3)n2)CN1 [Example 273],27
10,CC(C)(OCc1cccc(-c2cc(NC(=O)[C@@H]3CNC(=O)C3)nn2-c2ccc(F)cc2)c1)C(F)(F)F [Example 574],17
11,COC(C)(C)c1cccc(-c2cc(NC(=O)[C@H]3CNC(=O)N3)nn2-c2ccccc2)c1 [Example 269],92
12,"CC(C)(C)OCc1cccc(-c2cc(NC(=O)C3CCC(=O)NC3)nn2-c2ccccc2)c1 (single isomer, unassigned) [Example 336]",25
13,COc1cc(-n2nc(NC(=O)[C@@H]3CNC(=O)C3)cc2-c2cccc(COCC(F)(F)F)c2)ccc1F [Example 416],15
14,"O=C1C[C@H](C(=O)Nc2cc(-c3cccc(COC(C(F)(F)F)C(F)(F)F)c3)n(-c3ccccc3)n2)CN1 [Example 246, (S)-5-oxopyrrolidine-3-carboxylic acid{1-phenyl-5-[3-(2,2,2-trifluoro-1-trifluoromethylethoxymethyl)phenyl]-1H-pyrazol-3-yl}amide]",11.5
15,CCOc1cc(F)cc(-n2nc(NC(=O)[C@@H]3CNC(=O)C3)cc2-c2cccc(CO[C@H](C)C(F)(F)F)c2)c1 [Example 534],1.8
16,CC(C)(C)CS(=O)(=O)c1cccc(-c2cc(NC(=O)[C@@H]3CNC(=O)C3)nn2-c2ccccc2)c1 [Example 540],48
17,C[C@@H](OCc1cccc(-c2cc(NC(=O)[C@H]3CNC(=O)O3)nn2-c2ccccc2)c1)C(F)(F)F [Example 367],11.5
18,"C[C@@H](OCc1cc(F)cc(-c2cc(NC(=O)[C@H]3CNC(=O)N3)nn2-c2ccc(F)cc2)c1)C(F)(F)F [Example 240, (R)-2-oxoimidazolidine-4-carboxylic acid{1-(4-fluorophenyl)-5-[3-fluoro-5-((R)-2,2,2-trifluoro-1-methylethoxymethyl)phenyl]-1H-pyrazol-3-yl}amide]",20
19,CCCc1cccc(-c2cc(NC(=O)[C@@H]3CNC(=O)C3)nn2-c2ccccc2OC)c1 [Example 376],31
20,CCCc1cccc(-c2cc(NC(=O)[C@@H]3CNC(=O)C3)nn2-c2cccc(OCCOCc3ccccc3)c2)c1 [Example 407],7.6
21,COc1cccc(-n2nc(NC(=O)[C@@H]3CNC(=O)C3)cc2-c2cccc(OC(F)(F)F)c2)c1 [Example 442],15
22,CC(C)Oc1cccc(-n2nc(NC(=O)[C@@H]3CNC(=O)C3)cc2-c2cccc(CO[C@H](C)C(F)(F)F)c2)c1F [Example 486],6.5
23,"C[C@@H](OCc1cc(F)cc(-c2cc(NC(=O)[C@@H]3CNC(=O)C3)nn2-c2ccccc2)c1)C(F)(F)F [Example 235, (S)-5-oxopyrrolidine-3-carboxylic acid{5-[3-fluoro-5-((R)-2,2,2-trifluoro-1-methylethoxymethyl)phenyl]-1-phenyl-1H-pyrazol-3-yl}amide]",3.4
24,O=C1C[C@H](C(=O)Nc2cc(-c3cc(Cl)cc(COCC(F)(F)F)c3)n(-c3ccccc3)n2)CN1 [Example 586],46

# Same assay, conditions: CHO-K1, at 0.1 uM
row,SMILES,inhibition at 0.1 µM [%]
1,O=C1C[C@H](C(=O)Nc2cc(-c3cccc(COCC(F)(F)F)c3)n(-c3cc(Cl)ccc3F)n2)CN1 [Example 503],-17
2,C[C@@H]1C[C@H](n2nc(NC(=O)[C@H]3CNC(=O)C3)cc2-c2cccc(OC(F)(F)F)c2)C[C@H](C)O1 [Example 219],20
3,CCC(F)(F)c1cccc(-c2cc(NC(=O)[C@H]3CNC(=O)C3)nn2CCN2CCCC2)c1 [Example 169],4
4,C[C@@H](OCc1cc(-c2cc(NC(=O)[C@@H]3CNC(=O)C3)nn2-c2ccccc2)ccc1F)C(F)(F)F [Example 557],48
5,CC(C)(C)C#Cc1cccc(-c2cc(NC(=O)[C@@H]3CNC(=O)C3)nn2-c2ccccc2)c1 [Example 499],4
6,O=C1C[C@H](C(=O)Nc2cc(-c3cccc(CS(=O)(=O)CC(F)(F)F)c3)n(-c3ccccc3)n2)CN1 [Example 552],8
7,C[C@@H](OCc1cccc(-c2cc(NC(=O)[C@H]3CCC(=O)N3)nn2-c2ccccc2)c1)C(F)(F)F [Example 556],23

# Same assay, conditions: CHO-K1, at 0.3 uM
row,SMILES,inhibition at 0.3 µM [%]
1,CC(C)(O)c1cccc(-c2cc(NC(=O)[C@@H]3CNC(=O)C3)nn2-c2ccccc2)c1 [Example 81],43
